# Data from patent US10738028B2, “Spiro three-membered ring, spiro five-membered ring peptide deformylase inhibitor and use thereof in antibacteria and anti-tumor” (priority 2016, dated 2020).
# Tests used:
# Type in all cases: cell-based
# [1] = test system: HCT-116 colorectal cancer cell line; assay: CCK-8 proliferation inhibition; details: Homo sapiens, HCT-116, 72 h, concentration of 30 μM; 72 hours; CCK-8; read-out: HCT116 inhibition rate/%
# Procedure, shortened: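 Growth inhibition is read by CCK-8 (1:10 dilution) after 72 h of compound exposure. HCT-116 cells grow in McCoy's 5A containing 10% newborn bovine serum at 2000 cells/well, with 1‰ DMSO as vehicle control.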
# [2] = test system: methicillin-resistant Staphylococcus aureus (MRSA); assay: MIC, two-fold agar dilution (CLSI), clinical isolates; details: for Anti-bacterial activity (MIC), strain MRSA 15-1: clinical isolate MRSA 15-1; for Anti-bacterial activity (MIC), strain MRSA 15-2: clinical isolate MRSA 15-2; for Anti-bacterial activity (MIC), strain MRSA 15-3: clinical isolate MRSA 15-3; for Anti-bacterial activity (MIC), strain MRSA 15-4: clinical isolate MRSA 15-4
# Procedure, shortened: (§1)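 Test samples were assayed by the CLSI-recommended two-fold agar dilution method, and the minimum inhibitory concentration against each tested strain was determined.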
# [3] = test system: methicillin-sensitive Staphylococcus aureus (MSSA); assay: as above; details: for Anti-bacterial activity (MIC), strain MSSA 15-3: clinical isolate MSSA 15-3; for Anti-bacterial activity (MIC), strain MSSA 15-4: clinical isolate MSSA 15-4; for Anti-bacterial activity (MIC), strain MSSA 15-5: clinical isolate MSSA 15-5; for Anti-bacterial activity (MIC), strain MSSA 15-6: clinical isolate MSSA 15-6
# Procedure, shortened: as §1
# [4] = test system: Escherichia coli (including ESBLs, non-ESBLs); assay: as above; details: for Anti-bacterial activity (MIC), strain ECO+ 15-1: clinical isolate ECO+ 15-1; for Anti-bacterial activity (MIC), strain ECO+ 15-2: clinical isolate ECO+ 15-2; for Anti-bacterial activity (MIC), strain ECO+ 15-3: clinical isolate ECO+ 15-3; for Anti-bacterial activity (MIC), strain ECO+ 15-4: clinical isolate ECO+ 15-4; for Anti-bacterial activity (MIC), strain ECO− 15-1: clinical isolate ECO− 15-1; for Anti-bacterial activity (MIC), strain ECO− 15-2: clinical isolate ECO− 15-2; for Anti-bacterial activity (MIC), strain ECO− 15-3: clinical isolate ECO− 15-3; for Anti-bacterial activity (MIC), strain ECO− 15-4: clinical isolate ECO− 15-4
# Procedure, shortened: as §1
# [5] = test system: Enterococcus faecium (EFM); assay: as above
# Procedure, shortened: as §1
# [6] = test system: methicillin-sensitive Staphylococcus epidermidis (MSSE); assay: as above; details: for Anti-bacterial activity (MIC), strain MSSE 15-3: clinical isolate MSSE 15-3; for Anti-bacterial activity (MIC), strain MSSE 15-4: clinical isolate MSSE 15-4; for Anti-bacterial activity (MIC), strain MSSE 15-5: clinical isolate MSSE 15-5; for Anti-bacterial activity (MIC), strain MSSE 15-6: clinical isolate MSSE 15-6
# Procedure, shortened: as §1
# [7] = test system: Enterococcus faecalis (EFA); assay: as above
# Procedure, shortened: as §1
# [8] = test system: Moraxella catarrhalis (BCA); assay: as above
# Procedure, shortened: as §1
# [9] = test system: Streptococcus pneoumoniae (SPN); assay: as above
# Procedure, shortened: as §1
# [10] = test system: methicillin-resistant Staphylococcus epidermidis (MRSE); assay: as above; details: for Anti-bacterial activity (MIC), strain MRSE 15-1: clinical isolate MRSE 15-1; for Anti-bacterial activity (MIC), strain MRSE 15-2: clinical isolate MRSE 15-2; for Anti-bacterial activity (MIC), strain MRSE 15-3: clinical isolate MRSE 15-3; for Anti-bacterial activity (MIC), strain MRSE 15-7: clinical isolate MRSE 15-7
# Procedure, shortened: as §1
structure (smiles),measurement,setting,value
O=C(C[C@@H](CC1CCCC1)C(=O)N1CC2(CC2)C[C@H]1C(=O)Nc1ncco1)NO [Example 69],inhibition at 30 µM,[1],15%
same,"Anti-bacterial activity (MIC), strain MRSA 15-1",[2],2 µg/mL
same,"Anti-bacterial activity (MIC), strain MRSA 15-2",[2],8 µg/mL
same,"Anti-bacterial activity (MIC), strain MRSA 15-3",[2],2 µg/mL
same,"Anti-bacterial activity (MIC), strain MRSA 15-4",[2],8 µg/mL
same,"Anti-bacterial activity (MIC), strain MSSA 15-3",[3],8 µg/mL
same,"Anti-bacterial activity (MIC), strain MSSA 15-4",[3],2 µg/mL
same,"Anti-bacterial activity (MIC), strain MSSA 15-5",[3],2 µg/mL
same,"Anti-bacterial activity (MIC), strain MSSA 15-6",[3],> 32 µg/mL
same,"Anti-bacterial activity (MIC), strain ECO+ 15-1",[4],32 µg/mL
same,"Anti-bacterial activity (MIC), strain ECO+ 15-2",[4],32 µg/mL
same,"Anti-bacterial activity (MIC), strain ECO+ 15-3",[4],32 µg/mL
same,"Anti-bacterial activity (MIC), strain ECO+ 15-4",[4],> 32 µg/mL
same,"Anti-bacterial activity (MIC), strain ECO− 15-1",[4],32 µg/mL
same,"Anti-bacterial activity (MIC), strain ECO− 15-2",[4],32 µg/mL
same,"Anti-bacterial activity (MIC), strain ECO− 15-3",[4],32 µg/mL
same,"Anti-bacterial activity (MIC), strain ECO− 15-4",[4],32 µg/mL
same,Anti-bacterial activity (MIC),[5]; strain EFM 15-1,> 32 µg/mL
same,Anti-bacterial activity (MIC),[5]; strain EFM 15-2,> 32 µg/mL
same,Anti-bacterial activity (MIC),[5]; strain EFM 15-3,> 32 µg/mL
same,Anti-bacterial activity (MIC),[5]; strain EFM 15-4,> 32 µg/mL
same,Anti-bacterial activity (MIC),[5]; strain EFM 15-5,8 µg/mL
same,Anti-bacterial activity (MIC),[5]; strain EFM 15-6,8 µg/mL
same,"Anti-bacterial activity (MIC), strain MSSE 15-3",[6],1 µg/mL
same,"Anti-bacterial activity (MIC), strain MSSE 15-4",[6],8 µg/mL
same,"Anti-bacterial activity (MIC), strain MSSE 15-5",[6],8 µg/mL
same,"Anti-bacterial activity (MIC), strain MSSE 15-6",[6],2 µg/mL
same,Anti-bacterial activity (MIC),[7]; strain EFA 15-1,> 32 µg/mL
same,Anti-bacterial activity (MIC),[7]; strain EFA 15-2,> 32 µg/mL
same,Anti-bacterial activity (MIC),[7]; strain EFA 15-3,> 32 µg/mL
same,Anti-bacterial activity (MIC),[7]; strain EFA 15-4,> 32 µg/mL
same,Anti-bacterial activity (MIC),[7]; strain EFA 15-5,> 32 µg/mL
same,Anti-bacterial activity (MIC),[7]; strain EFA 15-6,> 32 µg/mL
same,Anti-bacterial activity (MIC),[7]; strain EFA 15-9,> 32 µg/mL
same,Anti-bacterial activity (MIC),[8]; strain BCA 14-1,> 32 µg/mL
same,Anti-bacterial activity (MIC),[8]; strain BCA 14-4,> 32 µg/mL
same,Anti-bacterial activity (MIC),[8]; strain BCA 14-5,8 µg/mL
same,Anti-bacterial activity (MIC),[8]; strain BCA 14-6,> 32 µg/mL
same,Anti-bacterial activity (MIC),[8]; strain BCA 14-7,> 32 µg/mL
same,Anti-bacterial activity (MIC),[8]; strain BCA 14-8,> 32 µg/mL
same,Anti-bacterial activity (MIC),[8]; strain BCA 14-10,4 µg/mL
same,Anti-bacterial activity (MIC),[9]; strain SPN 16-2,2 µg/mL
same,Anti-bacterial activity (MIC),[9]; strain SPN 16-4,1 µg/mL
same,"Anti-bacterial activity (MIC), strain MRSE 15-1",[10],8 µg/mL
same,"Anti-bacterial activity (MIC), strain MRSE 15-2",[10],8 µg/mL
same,"Anti-bacterial activity (MIC), strain MRSE 15-3",[10],8 µg/mL
same,"Anti-bacterial activity (MIC), strain MRSE 15-7",[10],8 µg/mL
O=C(C[C@@H](CC1CCCC1)C(=O)N1CC2(CC2)C[C@H]1C(=O)Nc1nncs1)NO [Example 74],inhibition at 30 µM,[1],1%
same,"Anti-bacterial activity (MIC), strain MRSA 15-1",[2],4 µg/mL
same,"Anti-bacterial activity (MIC), strain MRSA 15-2",[2],8 µg/mL
same,"Anti-bacterial activity (MIC), strain MRSA 15-3",[2],5 µg/mL
same,"Anti-bacterial activity (MIC), strain MRSA 15-4",[2],8 µg/mL
same,"Anti-bacterial activity (MIC), strain MSSA 15-3",[3],4 µg/mL
same,"Anti-bacterial activity (MIC), strain MSSA 15-4",[3],4 µg/mL
same,"Anti-bacterial activity (MIC), strain MSSA 15-5",[3],2 µg/mL
same,"Anti-bacterial activity (MIC), strain MSSA 15-6",[3],4 µg/mL
same,"Anti-bacterial activity (MIC), strain ECO+ 15-1",[4],32 µg/mL
same,"Anti-bacterial activity (MIC), strain ECO+ 15-2",[4],> 32 µg/mL
same,"Anti-bacterial activity (MIC), strain ECO+ 15-3",[4],> 32 µg/mL
same,"Anti-bacterial activity (MIC), strain ECO+ 15-4",[4],> 32 µg/mL
same,"Anti-bacterial activity (MIC), strain ECO− 15-1",[4],> 32 µg/mL
same,"Anti-bacterial activity (MIC), strain ECO− 15-2",[4],> 32 µg/mL
same,"Anti-bacterial activity (MIC), strain ECO− 15-3",[4],> 32 µg/mL
same,"Anti-bacterial activity (MIC), strain ECO− 15-4",[4],> 32 µg/mL
same,Anti-bacterial activity (MIC),[5]; strain EFM 15-1,16 µg/mL
same,Anti-bacterial activity (MIC),[5]; strain EFM 15-2,32 µg/mL
same,Anti-bacterial activity (MIC),[5]; strain EFM 15-3,4 µg/mL
same,Anti-bacterial activity (MIC),[5]; strain EFM 15-4,32 µg/mL
same,Anti-bacterial activity (MIC),[5]; strain EFM 15-5,4 µg/mL
same,Anti-bacterial activity (MIC),[5]; strain EFM 15-6,32 µg/mL
same,"Anti-bacterial activity (MIC), strain MSSE 15-3",[6],1 µg/mL
same,"Anti-bacterial activity (MIC), strain MSSE 15-4",[6],1 µg/mL
same,"Anti-bacterial activity (MIC), strain MSSE 15-5",[6],1 µg/mL
same,"Anti-bacterial activity (MIC), strain MSSE 15-6",[6],1 µg/mL
same,Anti-bacterial activity (MIC),[7]; strain EFA 15-1,> 32 µg/mL
same,Anti-bacterial activity (MIC),[7]; strain EFA 15-2,> 32 µg/mL
same,Anti-bacterial activity (MIC),[7]; strain EFA 15-3,16 µg/mL
same,Anti-bacterial activity (MIC),[7]; strain EFA 15-4,> 32 µg/mL
same,Anti-bacterial activity (MIC),[7]; strain EFA 15-5,> 32 µg/mL
same,Anti-bacterial activity (MIC),[7]; strain EFA 15-6,> 32 µg/mL
same,Anti-bacterial activity (MIC),[7]; strain EFA 15-9,> 32 µg/mL
same,Anti-bacterial activity (MIC),[8]; strain BCA 14-1,> 32 µg/mL
same,Anti-bacterial activity (MIC),[8]; strain BCA 14-4,> 32 µg/mL
same,Anti-bacterial activity (MIC),[8]; strain BCA 14-5,16 µg/mL
same,Anti-bacterial activity (MIC),[8]; strain BCA 14-6,> 32 µg/mL
same,Anti-bacterial activity (MIC),[8]; strain BCA 14-7,> 32 µg/mL
same,Anti-bacterial activity (MIC),[8]; strain BCA 14-8,> 32 µg/mL
same,Anti-bacterial activity (MIC),[8]; strain BCA 14-10,> 32 µg/mL
same,Anti-bacterial activity (MIC),[9]; strain SPN 16-2,32 µg/mL
same,Anti-bacterial activity (MIC),[9]; strain SPN 16-4,4 µg/mL
same,"Anti-bacterial activity (MIC), strain MRSE 15-1",[10],0.5 µg/mL
same,"Anti-bacterial activity (MIC), strain MRSE 15-2",[10],1 µg/mL
same,"Anti-bacterial activity (MIC), strain MRSE 15-3",[10],1 µg/mL
same,"Anti-bacterial activity (MIC), strain MRSE 15-7",[10],4 µg/mL
